A word on the IC50: it is the point on the concentration scale where inhibition reaches its midpoint.

Experimental findings from US20100000032A1, “PHENOXAZINE DYES” (Wetlands Incubator sprl, priority 2008, published 2010) are described below.

A value given as a limit tells only on which side of the number the result lay.

A short description of data set [1]: Light fastness of dyeing, ISO 105 B02. The class given is physicochemical. Conditions: polyamide 6 knitted fabric, rating 5 = no colour change, 1 = high colour change. As for the experimental part: (§1) The fastness properties of the dyeings (textile and leather) were measured in accordance with ISO standards mentioned in Table 3. The results shown in Table 3 are the visual assessment described in ISO105-A02: 1993 textiles—test for colour fastness—part A02. On this scale, a rating of 5 means no colour change and a rating of 1 means a high colour change.

Data set [2] is described as follows: Washing fastness of dyeing, ISO 105 C06: A2S. The format is physicochemical. The conditions noted are these: for Washing fastness, staining, acrylic / Washing fastness, staining, cellulose acetate / Washing fastness, staining, cotton / Washing fastness, staining, nylon / Washing fastness, staining, polyester / Washing fastness, staining, wool: rating 1-5; for Washing fastness, colour change: polyamide 6 knitted fabric, rating 5 = no colour change, 1 = high colour change. As to the method: as §1

A short description of data set [3]: Water fastness of dyeing, ISO 105 E01. The class given is physicochemical. Conditions: for Water fastness, staining, acrylic / Water fastness, staining, cellulose acetate / Water fastness, staining, cotton / Water fastness, staining, nylon / Water fastness, staining, polyester / Water fastness, staining, wool: rating 1-5; for Water fastness, colour change: polyamide 6 knitted fabric, rating 5 = no colour change, 1 = high colour change. As for the experimental part:
as §1

Data set [4] can be described thus: Chlorinated water fastness of dyeing, ISO 105 E03. The class given is physicochemical. Conditions: polyamide 6 knitted fabric, rating 5 = no colour change, 1 = high colour change. As for the experimental part:
as §1

Data set [5] relates to Caco-2 human intestinal cell line. The data set can be described thus: In vitro toxicity, neutral red uptake. The class given is cell-based. The conditions noted are these: concentration at which 50% of the cells die, exposure at least 48 hr, highest concentration tested 0.5 g/L. As to the method: (§2) The toxicity of compounds 17 and 18 were assessed with an in vitro method using the Caco-2 human intestinal cell line and the rainbow trout gonad (RTG-2) fish cell line. […] Subsequently, the cells were exposed to a series of concentrations of the test compounds, and two blanks, for at least 48 hr until 90% confluence was attained in the blanks. The highest concentration tested being 0.5 g/L. Thereafter, the exposure medium containing the test compounds was decanted and the cells in the microplate wells were gently washed with phosphate buffered saline solution. In order to measure the number of viable cells remaining after the exposure to the test compounds, the cells were exposed to a solution of neutral red in cell culture medium for 3 hr. […] Finally, the neutral red solution was decanted, the wells were again gently washed and then a solution of 1% acetic acid in 50% ethanol was added to the wells to dissolve the neutral red taken up by the viable cells. The absorbance of each well at 540 nm was measure with an appropriate microplate reader. The amount of neutral red present in each well is an indication of the number of viable cells and when compared to the values for the blanks can be used to calculate a percentage of cell death. An IC50 value, the concentration of the test compounds at which 50% of the cells die, can be determined if at least one of the tested compounds produces more than 50% cell death and at least one produces less; the results concerning compounds 17 and 18 are given in Table 4. If none of the tested concentrations produces more than 50% cell death, than an estimating can be made if at least some effect is noticeable. Comparing IC50 values among test compounds and with known toxicants allows for an assessment of their relative toxicities.

Data set [6] concerns rainbow trout gonad (RTG-2) fish cell line. The data set can be described thus: In vitro toxicity, neutral red uptake. The class given is cell-based. The conditions noted are these: Oncorhynchus mykiss, concentration at which 50% of the cells die, exposure at least 48 hr, highest concentration tested 0.5 g/L, read-out: NRTG-2 cells IC50. As for the experimental part: as §2

`Nc1c(S(=O)(=O)O)c2nc3c(S(=O)(=O)O)cccc3oc-2cc1=O` [Compound 17, 2-Amino-3oxo-3H-phenoxazine-1,9-disulfonic acid] registered a Light fastness in data set [1] (2% omf) above 3. Further, in data set [2] (2% omf), the “Washing fastness, staining, acrylic” value is 4/5; the “Washing fastness, staining, cellulose acetate” value is recorded as 4/5; the “Washing fastness, staining, cotton” value is 4/5; the “Washing fastness, staining, nylon” value was 3/4. Also, in data set [2] (2% omf), the “Washing fastness, staining, polyester” value is listed as 4/5; the “Washing fastness, staining, wool” value is 4; the “Washing fastness, colour change” value was 3. In addition, in data set [3] (2% omf), the “Water fastness, staining, acrylic” value is recorded as 4/5; the “Water fastness, staining, cellulose acetate” value was 4/5; the “Water fastness, staining, cotton” value was 4/5; the “Water fastness, staining, nylon” value is 3/4. Moreover, in data set [3] (2% omf), the “Water fastness, staining, polyester” value is reported as 4/5; the “Water fastness, staining, wool” value is recorded as 4; the “Water fastness, colour change” value stood at 3. Further, in data set [4] (2% omf), the “Chlorinated water fastness, colour change” value is listed as 3. In data set [5], this molecule showed an IC50 above 550 µg/mL. Further, the IC50 in data set [6] is above 780 µg/mL.
Consider `Nc1cc2nc3cc(S(=O)(=O)O)ccc3oc-2cc1=O` [Compound 18, 2-Amino-3oxo-3H-phenoxazine-8-sulfonic acid], for which the Light fastness in data set [1] (1% omf) was found to be 3. For the same molecule, in data set [2] (1% omf), the “Washing fastness, staining, acrylic” value is 4/5; the “Washing fastness, staining, cellulose acetate” value is recorded as 4/5; the “Washing fastness, staining, cotton” value was 4/5; the “Washing fastness, staining, nylon” value is 4/5. Besides, in data set [2] (1% omf), the “Washing fastness, staining, polyester” value is recorded as 4/5; the “Washing fastness, staining, wool” value is reported as 4/5; the “Washing fastness, colour change” value turned out to be 4. Further, in data set [3] (1% omf), the “Water fastness, staining, acrylic” value is on record as 4/5; the “Water fastness, staining, cellulose acetate” value is listed as 4; the “Water fastness, staining, cotton” value was found to be 4; the “Water fastness, staining, nylon” value worked out at 3. In data set [3] (1% omf), the “Water fastness, staining, polyester” value is recorded as 4/5; the “Water fastness, staining, wool” value was 2/3; the “Water fastness, colour change” value was determined as 4. Moreover, the “Chlorinated water fastness, colour change” value in data set [4] (1% omf) is listed as 3/4. In data set [5], the IC50 was above 686 µg/mL.
